How the values were obtained:
Type in all cases: biochemical
human JAK3 (aa 795-1124) = target: T1, human JAK3 (aa 795-1124) (Homo sapiens, UniProt P52333); assay: In vitro JAK kinase assay (TR-FRET), JAK3; conditions: catalytic domain GST-fusion; ATP 0.6 μM; poly (GT)-Biotin 140 nM; 30 minutes at room temperature
T1 construct: JAK3 (aa 795-1124); GST (N); purchased Carna Biosciences; host or cells: baculovirus expression system
Experimental: (§1) Compounds were screened for their ability to inhibit JAK1, JAK2 and JAK3 using the assays as indicated below.
(§2) The enzymatic activity was assayed using as substrate a biotinylated peptide, poly (GT)-Biotin (CisBio). […] The degree of phosphorylation was detected by TR-FRET (time-resolved fluorescence energy transfer).
(§3) The enzymatic reactions took place for 30 minutes at room temperature. […] Incubate for 3 h and read on Victor 2V spectrofluorometer (PerkinElmer) set to read fluorescence resonance energy transfer.

human JAK2 (aa 826-1132) = target: T2, human JAK2 (aa 826-1132) (Homo sapiens, UniProt O60674); assay: In vitro JAK kinase assay (TR-FRET), JAK2; conditions: catalytic domain GST-fusion; ATP 0.2 μM; poly (GT)-Biotin 20 nM; 30 minutes at room temperature
T2 construct: JAK2 (aa 826-1132); GST (N); purchased Carna Biosciences; host or cells: baculovirus expression system
T2 sequence (O60674 826-1132): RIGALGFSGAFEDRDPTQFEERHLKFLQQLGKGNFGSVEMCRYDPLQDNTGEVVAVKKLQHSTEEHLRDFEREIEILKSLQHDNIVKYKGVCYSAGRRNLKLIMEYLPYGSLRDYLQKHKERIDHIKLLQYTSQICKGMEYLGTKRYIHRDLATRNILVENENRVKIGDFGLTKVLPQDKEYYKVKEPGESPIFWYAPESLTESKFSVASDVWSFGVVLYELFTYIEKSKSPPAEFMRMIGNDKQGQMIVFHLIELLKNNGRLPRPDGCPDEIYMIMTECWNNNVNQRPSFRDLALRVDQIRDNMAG
Experimental: as §1, §2, §3

human JAK1 (aa 850-1154) = target: T3, human JAK1 (aa 850-1154) (Homo sapiens, UniProt P23458); assay: In vitro JAK kinase assay (TR-FRET), JAK1; conditions: catalytic domain GST-fusion; ATP 3 μM; poly (GT)-Biotin 60 nM; 30 minutes at room temperature
T3 construct: human JAK1 (aa 850-1154); GST (N); purchased Carna Biosciences; host or cells: baculovirus expression system
T3 sequence (P23458 850-1154): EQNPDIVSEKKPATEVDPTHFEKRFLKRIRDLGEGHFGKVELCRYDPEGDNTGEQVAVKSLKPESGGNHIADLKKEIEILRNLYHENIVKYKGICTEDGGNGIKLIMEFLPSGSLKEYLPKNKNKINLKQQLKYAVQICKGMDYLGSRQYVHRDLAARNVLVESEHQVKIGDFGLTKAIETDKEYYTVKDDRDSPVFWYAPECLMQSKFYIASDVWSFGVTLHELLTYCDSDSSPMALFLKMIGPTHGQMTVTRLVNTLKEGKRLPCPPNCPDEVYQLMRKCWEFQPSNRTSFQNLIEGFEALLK
Experimental: as §1, §2, §3

T1 sequence (P52333 795-1124): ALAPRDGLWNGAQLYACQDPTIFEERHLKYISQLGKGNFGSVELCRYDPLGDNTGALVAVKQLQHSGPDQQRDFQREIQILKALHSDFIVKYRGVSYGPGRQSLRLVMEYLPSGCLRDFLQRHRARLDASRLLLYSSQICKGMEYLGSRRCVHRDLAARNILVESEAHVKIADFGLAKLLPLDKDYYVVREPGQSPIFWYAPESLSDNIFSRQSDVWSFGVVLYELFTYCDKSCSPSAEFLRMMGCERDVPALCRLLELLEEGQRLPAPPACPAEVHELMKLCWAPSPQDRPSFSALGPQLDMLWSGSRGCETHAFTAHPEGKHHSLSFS

Row | Compound | IC50 (human JAK3 (aa 795-1124)) | IC50 (human JAK2 (aa 826-1132)) | IC50 (human JAK1 (aa 850-1154))
1 | O=c1[nH]cccc1Nc1ncc2[nH]c(=O)n([C@@H]3CCCC[C@@H]3CO)c2n1 (relative stereo) [Example 21, 9-(cis-2-(Hydroxymethyl)cyclohexyl)-2-(2-oxo-1,2-dihydropyridin-3-ylamino)-7H-purin-8(9H)-one] | < 100 nM | < 100 nM | 100 to 1000 nM
2 | N#C[C@@H]1CCCC[C@H]1n1c(=O)[nH]c2cnc(Nc3ccc[nH]c3=O)nc21 (relative stereo) [Example 23, trans-2-(8-Oxo-2-(2-oxo-1,2-dihydropyridin-3-ylamino)-7H-purin-9(8H)-yl)cyclo hexanecarbonitrile] | < 100 nM | < 100 nM | 100 to 1000 nM
3 | O=c1[nH]cccc1Nc1ncc2[nH]c(=O)n(C3CCOCC3)c2n1 [Example 1, 2-(2-Oxo-1,2-dihydropyridin-3-ylamino)-9-(tetrahydro-2H-pyran-4-yl)-7H-purin-8(9H)-one] | < 100 nM | < 100 nM | 100 to 1000 nM
4 | O=c1[nH]cc(C(F)F)cc1Nc1ncc2[nH]c(=O)n(C3CCOCC3)c2n1 [Example 5, 2-(5-(Difluoromethyl)-2-oxo-1,2-dihydropyridin-3-ylamino)-9-(tetrahydro-2H-pyran-4-yl)-7H-purin-8(9H)-one] | < 100 nM | < 100 nM | < 100 nM
5 | O=c1[nH]cccc1Nc1ncc2[nH]c(=O)n(C3CCSCC3)c2n1 [Example 12, 2-(2-Oxo-1,2-dihydropyridin-3-ylamino)-9-(tetrahydro-2H-thiopyran-4-yl)-7H-purin-8(9H)-one] | < 100 nM | < 100 nM | 100 to 1000 nM
6 | O=c1[nH]cccc1Nc1ncc2[nH]c(=O)n(C3CCCCC3)c2n1 [Example 14, 9-Cyclohexyl-2-(2-oxo-1,2-dihydropyridin-3-ylamino)-7H-purin-8(9H)-one] | < 100 nM | < 100 nM | < 100 nM
7 | O=c1[nH]cccc1Nc1ncc2[nH]c(=O)n([C@H]3CC[C@@H](n4cncn4)CC3)c2n1 [Example 22, 9-((1s,4s)-4-(1H-1,2,4-Triazol-1-yl)cyclohexyl)-2-(2-oxo-1,2-dihydropyridin-3-ylamino)-7H-purin-8(9H)-one] | < 100 nM | < 100 nM | 100 to 1000 nM
8 | O=c1[nH]cccc1Nc1ncc2[nH]c(=O)n([C@@H]3CC=Cc4ccccc43)c2n1 [Example 31, (R)-9-(1,2-Dihydronaphthalen-1-yl)-2-(2-oxo-1,2-dihydropyridin-3-ylamino)-7H-purin-8(9H)-one] | < 100 nM | < 100 nM | 100 to 1000 nM
9 | CS(=O)(=O)C[C@H]1CC[C@H](n2c(=O)[nH]c3cnc(Nc4ccc[nH]c4=O)nc32)CC1 [Example 39, 9-((1r,4r)-4-(Methylsulfonylmethyl)cyclohexyl)-2-(2-oxo-1,2-dihydropyridin-3-ylamino)-7H-purin-8(9H)-one] | 100 to 1000 nM | < 100 nM | 100 to 1000 nM
10 | O=c1[nH]cccc1Nc1ncc2c(n1)n(C1CCOCC1)c(=O)n2CCO [Example 46, 7-(2-Hydroxyethyl)-2-(2-oxo-1,2-dihydropyridin-3-ylamino)-9-(tetrahydro-2H-pyran-4-yl)-7H-purin-8(9H)-one] | < 100 nM | < 100 nM | 100 to 1000 nM
11 | O=c1[nH]cccc1Nc1nc2c(cc1F)[nH]c(=O)n2C1CCOCC1 [Example 49, 6-Fluoro-5-(2-oxo-1,2-dihydropyridin-3-ylamino)-3-(tetrahydro-2H-pyran-4-yl)-1H-imidazo[4,5-b]pyridin-2(3H)-one] | < 100 nM | < 100 nM | 100 to 1000 nM
12 | O=c1[nH]cccc1Nc1nc(N2CCOCC2)c2[nH]c(=O)n(C3CCOCC3)c2n1 [Example 50, 6-Morpholino-2-(2-oxo-1,2-dihydropyridin-3-ylamino)-9-(tetrahydro-2H-pyran-4-yl)-7H-purin-8(9H)-one] | < 100 nM | < 100 nM | > 1000 nM
13 | O=c1[nH]cncc1Nc1ncc2[nH]c(=O)n(C3CCOCC3)c2n1 [Example 51, 2-(6-Oxo-1,6-dihydropyrimidin-5-ylamino)-9-(tetrahydro-2H-pyran-4-yl)-7H-purin-8(9H)-one] | 100 to 1000 nM | 100 to 1000 nM | 100 to 1000 nM
14 | C[C@H](c1ncc(F)cn1)n1c(=O)[nH]c2cnc(Nc3cnc[nH]c3=O)nc21 [Example 52, (R)-9-(1-(5-Fluoropyrimidin-2-yl)ethyl)-2-(6-oxo-1,6-dihydropyrimidin-5-ylamino)-7H-purin-8(9H)-one] | 100 to 1000 nM | < 100 nM | > 1000 nM
15 | O=c1[nH]nc(Cl)cc1Nc1ncc2[nH]c(=O)n(C3CCOCC3)c2n1 [Example 54, 2-(6-Chloro-3-oxo-2,3-dihydropyridazin-4-ylamino)-9-(tetrahydro-2H-pyran-4-yl)-7H-purin-8(9H)-one] | < 100 nM | 100 to 1000 nM | 100 to 1000 nM
